Measured values: patent US20260218439A1, “METHOD OF TREATING OR REDUCING CANCER COMPRISING ADMINISTERING A COMPOUND 3-(BENZO[D][1,3]DIOXOL-5-YL)-7-(1-HYDROXYPROPAN-2-YL)-1-(1H-INDOLE-3-YL)-6,7-DIHYDRO-3H-OXAZOLE[3,4-A]PYRAZINE-5,8-DIONE” (BIOLAB SANUS FARMACEUTICA LTDA, priority 2019, published 2026)

Tests used:
[1] = test system: DU145-human prostate cancer; experiment: Cell proliferation inhibition (CYQuant intracellular DNA), DU145; type: cell-based; details: for % Cell Proliferation Inhibition (intracellular DNA) DU145 (average ± E.P.M.): 72 hours
Protocol: (§1) For the execution of the assay, the compounds are diluted in DMSO 100% (v/v) at a concentration of 1000 μM and subsequently diluted in a Sodium Chloride solution 0.9% to obtain the storage solutions of interest for use in the assays. The final concentration of interest will be directly diluted in the cell culture medium. For the assay there are used the following tumor cell lineages: PC3-human prostate cancer cells; LNCAP-human prostate cancer cells; DU145-human prostate cancer; MNK45-human gastric cancer and RT4-human bladder cancer cells. The tumor cell lineages are maintained in culture according to standard procedures established by the Cell Bank of Rio de Janeiro (lineage place of origin) Procedure: • For the assay, the tumor cells are seeded in the concentration of 10.000 cells per well (final volume of the reaction of […]), the plate is incubated for 8 hours, for the cells to adhere to the wall of the wells. After this period, the plate is divided in groups: • (a) test group: […] of the samples were added (test compound) in the concentrations of interest; • (b) positive control group: […] of culture medium were added (100% of cell proliferation); • (c) negative control group: 200 mL of culture medium and […] of the vehicle used were added to dilute the compounds (without cells—zero proliferation); • (d) control group: […] were added of the vehicle used to dilute the compounds. This group is important to evaluate whether the vehicle used interferes in the cell proliferation. OBSERVATION: the treatment with the concentrations of samples (test compounds) and of the controls are carried out in triplicate. • Incubate the plate for 72 hours in a CO2 kiln at 37° C. • After the incubation period, add […] of the solution with DNA marker from the CYQuant Kit and incubate the plate, for 60 minutes, in a CO2 incubator at 37° C. The fluorescence intensity is determined using a fluorescence microplate reader with 485 nm excitation and 530 nm emission detection. The results obtained were normalized relative to the positive control group (100% proliferation). For the compounds there are prepared the storage solutions in the concentrations of: 100 nM, 1 μM, 3 μM, 5 μM, 10 μM and 30 μM (DMSO 10% v/v). While the final concentrations in the test are of: 10 nM, 100 nM, 300 nM, 500 nM, 1000 nM and 3000 nM (in DMSO 1% v/v).

[2] = target: T1, PDE5A1 (Homo sapiens, UniProt O76074); experiment: PDE5A1 fluorescence polarization enzyme assay (BPS Bioscience kit 60350); type: biochemical
T1 construct: purchased BPS Bioscience 60350
Protocol: The evaluation of the compound is studied using BPS Bioscience enzyme assay kit (catalogue 60350). The PDE5A1 Assay kit is designed for identification of PDE5A1 inhibitors using fluorescence polarization. The assay is based on the binding of a fluorescent nucleotide monophosphate generated by PDE5A1 enzyme to the binding agent.
In this methodology only two simple steps on a microtiter plate are required for PDE5A1 reactions. First, the fluorescently labeled cGMP is incubated with PDE5A1 for 1 hour. Second, the binding agent is added to the reaction mixture to produce a change in fluorescent polarization that can then be measured using a fluorescence reader equipped for the measurement of fluorescence polarization.
For the assay the storage reagent FAM-Cyclic-3′,5′-GMP (20 μM) is diluted with PDE assay buffer to achieve the solution with a […]; the PDE5A1 enzyme is thawed and diluted with the PDE buffer obtaining a PDE5A1 solution at 10 μg/mL.
The assay compounds are diluted with DMSO 100% (v/v) at a concentration of 1000 μM and subsequently diluted in a Sodium chloride 0.9% solution to obtain a curve of concentrations of interest for the assay. The compounds are diluted in concentrations of: 10 nM, 30 nM, 50 nM, 100 nM, 300 nM, 500 nM, 1 μM, 3 μM, 5 μM (DMSO 10% v/v).
The study is comprised of groups: (i) substrate control; (ii) positive control (KIT); (iii) samples in several concentrations; (iv) tadalafil (comparative control). Each parameter (group) is triple labeled.
• For the 4 groups there is added, to each microplate well, […] of the FAM-Cyclic-3′ reagent, 5′-GMP (200 μM). • To the substrate control group there is added, to each well, […] of vehicle (DMSO 10% v/v) and […] PDE Buffer. • To the positive control group there is added, to each well, […] of vehicle (DMSO 10% v/v). • To the tadalafil group: there is added 5 mL of the solution in the concentrations of interest. • To the test group there is added 5 mL of the sample solution (test compound)
OBSERVATION: the parameters tested are in triplicate.
To begin the reaction, add […] of the PDE5A1 enzyme (diluted as described above) to the microplate wells designated as Positive Control and Samples (test and tadalafil), and incubate the microplate, for 1 hour, at a temperature of 25° C.
After the incubation period, the reaction is interrupted by the addition, in all the wells, of […] of the binding agent solution and the microplate is incubated for 30 minutes, under light stirring, at room temperature. The reading of the microplate is carried out in Polarized Fluorescence (475-495 nm—excitation and 518-538 nm—emission detection) 500 nanoseconds integration time.

[3] = test system: RT4-human bladder cancer cells; experiment: Cell proliferation inhibition (CYQuant intracellular DNA), RT4; type: cell-based; details: for % Cell Proliferation Inhibition (intracellular DNA) RT4 (average ± E.P.M.): 72 hours
Protocol: as §1

[4] = test system: MNK45-human gastric cancer; experiment: Cell proliferation inhibition (CYQuant intracellular DNA), MNK45; type: cell-based; details: 72 hours
Protocol: as §1

[5] = test system: LNCAP-human prostate cancer cells; experiment: Cell proliferation inhibition (CYQuant intracellular DNA), LNCAP; type: cell-based; details: for % Cell Proliferation Inhibition (intracellular DNA) LNCAP (average ± E.P.M.): 72 hours
Protocol: as §1

[6] = test system: PC3-human prostate cancer cells; experiment: Cell proliferation inhibition (CYQuant intracellular DNA), PC3; type: cell-based; details: for % Cell Proliferation Inhibition (intracellular DNA) PC-3 (average ± E.P.M.): 72 hours
Protocol: as §1

## (R)-3-(benzo [d][1, 3]dioxol-5-yl)-7-((S)-1-hydroxypropan-2-yl)-1-(1H-indole-3-yl)-6, 7-dihydro-3H-oxazole [3, 4-a]pyrazine-5, 8-dione with (S)-3-(benzo [d][1,3]dioxol-5-yl)-7-((S)-1-hydroxypropan-2-yl)-1-(1H-indole-3-yl)-6, 7-dihydro-3H-oxazole [3, 4-a]pyrazine-5, 8-dione [BL-241]
[1]; DU145, 100 nM
  % Cell Proliferation Inhibition (intracellular DNA) DU145 (average ± E.P.M.): 33 ± 8%
[1]; DU145, 300 nM
  % Cell Proliferation Inhibition (intracellular DNA) DU145 (average ± E.P.M.): 17 ± 3%
[1]; DU145, 500 nM
  % Cell Proliferation Inhibition (intracellular DNA) DU145 (average ± E.P.M.): 18 ± 2%
[1]; DU145, 1000 nM
  % Cell Proliferation Inhibition (intracellular DNA) DU145 (average ± E.P.M.): 22 ± 2%
[1]; DU145, 3000 nM
  % Cell Proliferation Inhibition (intracellular DNA) DU145 (average ± E.P.M.): 43 ± 5%
[1]; DU145 prostate cancer tumor lineage
  antiproliferative effect (result in words): presented antiproliferative effect
[2]; compound 500 nM
  % of Inhibition (PDE5A1): 57%
[2]; compound 1000 nM
  % of Inhibition (PDE5A1): 71%
[2]; compound 3000 nM
  % of Inhibition (PDE5A1): 88%
[2]; concentration series
  PDE5 inhibition (result in words): capable of inhibiting the PDE5 in a dose-dependent manner
[3]; RT4, 100 nM
  % Cell Proliferation Inhibition (intracellular DNA) RT4 (average ± E.P.M.): 28 ± 6%
[3]; RT4, 300 nM
  % Cell Proliferation Inhibition (intracellular DNA) RT4 (average ± E.P.M.): 5 ± 2%
[3]; RT4, 500 nM
  % Cell Proliferation Inhibition (intracellular DNA) RT4 (average ± E.P.M.): 4 ± 2%
[3]; RT4, 1000 nM
  % Cell Proliferation Inhibition (intracellular DNA) RT4 (average ± E.P.M.): 11 ± 8%
[3]; RT4, 3000 nM
  % Cell Proliferation Inhibition (intracellular DNA) RT4 (average ± E.P.M.): 57 ± 4%
[3]; RT4 bladder cancer tumor lineage
  antiproliferative effect (result in words): presented antiproliferative effect
[4]; MNK45, 100 nM
  % Cell Proliferation Inhibition (intracellular DNA) MNK45 (average ± E.P.M.): 25 ± 1%
[4]; MNK45, 300 nM
  % Cell Proliferation Inhibition (intracellular DNA) MNK45 (average ± E.P.M.): 10 ± 2%
[4]; MNK45, 500 nM
  % Cell Proliferation Inhibition (intracellular DNA) MNK45 (average ± E.P.M.): 2 ± 1%
[4]; MNK45, 1000 nM
  % Cell Proliferation Inhibition (intracellular DNA) MNK45 (average ± E.P.M.): 4 ± 1%
[4]; MNK45, 3000 nM
  % Cell Proliferation Inhibition (intracellular DNA) MNK45 (average ± E.P.M.): 20 ± 3%
[5]; LNCAP prostate cancer tumor lineage
  antiproliferative effect (result in words): presented antiproliferative effect
[5]; 10 nM
  % Cell Proliferation Inhibition (intracellular DNA) LNCAP (average ± E.P.M.): 25 ± 2%
[5]; 100 nM
  % Cell Proliferation Inhibition (intracellular DNA) LNCAP (average ± E.P.M.): 37 ± 3%
[5]; 300 nM
  % Cell Proliferation Inhibition (intracellular DNA) LNCAP (average ± E.P.M.): 38 ± 4%
[5]; 500 nM
  % Cell Proliferation Inhibition (intracellular DNA) LNCAP (average ± E.P.M.): 44 ± 2%
[5]; 1000 nM
  % Cell Proliferation Inhibition (intracellular DNA) LNCAP (average ± E.P.M.): 34 ± 6%
[6]; PC3 prostate cancer tumor lineage
  antiproliferative effect (result in words): presented antiproliferative effect
[6]; PC-3, 10 nM
  % Cell Proliferation Inhibition (intracellular DNA) PC-3 (average ± E.P.M.): 27 ± 11%
[6]; PC-3, 100 nM
  % Cell Proliferation Inhibition (intracellular DNA) PC-3 (average ± E.P.M.): 36 ± 7%
[6]; PC-3, 300 nM
  % Cell Proliferation Inhibition (intracellular DNA) PC-3 (average ± E.P.M.): 42 ± 6%
[6]; PC-3, 500 nM
  % Cell Proliferation Inhibition (intracellular DNA) PC-3 (average ± E.P.M.): 46 ± 1%
[6]; PC-3, 1000 nM
  % Cell Proliferation Inhibition (intracellular DNA) PC-3 (average ± E.P.M.): 33 ± 3%
